Results on 8 molecules are retold here after patent publication US20210038607A1, “OXADIAZOLYLTHIOPHENE DERIVATIVES USEFUL AS HISTONE DEACETYLASE INHIBITORS” (Karus Therapeutics Limited, priority 2018, published 2021).

One experiment has as its target T1, Human HDAC1 (Homo sapiens, UniProt Q13547).
T1 construct: full length with C-terminal His-tag and C-terminal FLAG-tag; His (C); FLAG (C); host or cells: baculovirus expression system
Put plainly: HDAC1 biochemical assay, AMC-labeled peptide substrate. To be noted: read-out: HDAC Isoform IC50 (nM) 1. As to the method: (§1) Activity against all zinc-dependent HDACs 1 to 11 was assessed by using an acetylated AMC-labeled peptide substrate. The substrate RHKK(Ac)AMC was used for HDAC1, HDAC2, HDAC3, HDAC6 and HDAC10; the substrate used for HDAC8 was RHK(Ac)K(Ac)AMC. Activity against the class IIa HDACs (HDAC4, 5, 7, 9) and HDAC11 was determined using a class IIa-specific substrate, BOC-Lys(trifluoroacetyl)-AMC (“Trifluoroacetyl Lysine”; see Lahm et al, 2007, PNAS, 104, 17335-17340). All assays were based on the AMC-labeled substrate and developer combination.
(§2) The protocol involved a two-step reaction: first, the substrate with the acetylated lysine side chain is incubated with a sample containing HDAC activity, to produce the deacetylated products, which are then digested in the second step by the addition of developer to produce the fluorescent signal proportional to the amount of deacetylated substrates.
Human HDAC1 (GenBank Accession No. NM_004964), full length with C-terminal His-tag and C-terminal FLAG-tag, MW=56 kDa, expressed in baculovirus expression system.
(§3) Assay Buffer: 50 mM Tris-HCl, pH8.0, 137 mM NaCl, 2.7 mM KCl, 1 mM MgC2. Before use, 1 mg/mL BSA and DMSO are added.
HDAC1: 0.3 ng/ul HDAC1 and 50 μM HDAC substrate are in the reaction buffer with 1% DMSO final. Incubate for 1 hour at 30° C.
(§4) Stage 1: Deacetylation of substrate by incubation of HDAC enzymes with compounds
(§5) Stage 2: Development by addition of Developer to digest the deacetylated substrate, and generate the fluorescent colour; Detection: 360/460 Ex/Em

A further experiment concerns the target T2, Human HDAC4 (Homo sapiens, UniProt P56524).
T2 construct: amino acids 627-1085 with N-terminal GST tag; GST (N); host or cells: baculovirus expression system
In words: HDAC4 biochemical assay, class IIa-specific substrate. The conditions noted are these: read-out: HDAC Isoform IC50 (nM) 4. As to the method: as §1, §2
Human HDAC4 (GenBank Accession No. NM_006037), amino acids 627-1085 with N-terminal GST tag, MW=75.2 kDa, expressed in baculovirus expression system.
as §3
(§6) For class IIa HDACs, assay buffer is the same.
HDAC4: 0.004 ng/ul HDAC4 and 50 μM Class IIa HDAC substrate are in the reaction buffer with 1% DMSO final. Incubate for 30 minutes at room temperature.
as §4, §5

The target in the next experiment is T3, Human HDAC5 (Homo sapiens, UniProt Q9UQL6).
T3 construct: full length with C-terminal His tag, MW=51.1 kDa; His (C); host or cells: baculovirus expression system
In words: HDAC5 biochemical assay, class IIa-specific substrate. To be noted: read-out: HDAC Isoform IC50 (nM) 5. The procedure: as §1, §2
Human HDAC5 (GenBank Accession No. NM_005474), full length with C-terminal His tag, MW=51.1 kDa, expressed in baculovirus expression system.
as §3, §6
HDAC5: 0.05 ng/ul HDAC5 and 50 μM Class IIa HDAC substrate are in the reaction buffer with 1% DMSO final. Incubate for 30 minutes at room temperature.
as §4, §5

Another experiment concerns the target T4, Recombinant human HDAC6 (Homo sapiens, UniProt Q9UBN7).
T4 construct: full length, MW=159 kDa; GST (N); host or cells: Sf9 insect cells (baculovirus)
T4 sequence (Q9UBN7 1-1215): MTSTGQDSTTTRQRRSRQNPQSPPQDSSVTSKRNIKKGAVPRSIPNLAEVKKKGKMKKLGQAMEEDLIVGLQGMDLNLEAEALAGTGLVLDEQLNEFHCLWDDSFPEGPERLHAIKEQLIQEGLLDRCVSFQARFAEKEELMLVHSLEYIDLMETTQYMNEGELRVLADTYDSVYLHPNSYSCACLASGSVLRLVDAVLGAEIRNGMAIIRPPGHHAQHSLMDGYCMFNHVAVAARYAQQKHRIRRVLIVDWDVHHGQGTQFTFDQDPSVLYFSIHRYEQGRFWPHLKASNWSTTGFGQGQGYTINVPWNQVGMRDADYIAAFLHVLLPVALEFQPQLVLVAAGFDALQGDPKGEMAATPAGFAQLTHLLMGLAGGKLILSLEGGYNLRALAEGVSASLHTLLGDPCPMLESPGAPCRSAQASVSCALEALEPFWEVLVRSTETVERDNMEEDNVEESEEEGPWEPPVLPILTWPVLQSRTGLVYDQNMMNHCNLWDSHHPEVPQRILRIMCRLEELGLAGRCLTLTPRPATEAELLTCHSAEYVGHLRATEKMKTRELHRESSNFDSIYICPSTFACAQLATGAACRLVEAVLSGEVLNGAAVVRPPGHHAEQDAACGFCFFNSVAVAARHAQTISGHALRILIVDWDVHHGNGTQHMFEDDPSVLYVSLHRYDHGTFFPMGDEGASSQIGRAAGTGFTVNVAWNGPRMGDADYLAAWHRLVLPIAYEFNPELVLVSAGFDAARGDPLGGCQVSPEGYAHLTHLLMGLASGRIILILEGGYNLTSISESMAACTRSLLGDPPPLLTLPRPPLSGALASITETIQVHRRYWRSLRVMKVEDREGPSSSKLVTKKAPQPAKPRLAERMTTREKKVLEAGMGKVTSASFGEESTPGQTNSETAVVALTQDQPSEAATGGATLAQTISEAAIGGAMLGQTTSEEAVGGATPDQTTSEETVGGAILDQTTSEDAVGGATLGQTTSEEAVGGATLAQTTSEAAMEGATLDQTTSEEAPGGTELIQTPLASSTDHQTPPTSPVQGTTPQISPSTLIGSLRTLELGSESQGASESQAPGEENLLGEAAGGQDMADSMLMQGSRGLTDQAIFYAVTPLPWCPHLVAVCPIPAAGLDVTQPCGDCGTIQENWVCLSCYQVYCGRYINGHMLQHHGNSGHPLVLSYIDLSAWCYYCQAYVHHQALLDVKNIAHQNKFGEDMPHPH
Put plainly: HDAC6 biochemical assay, AMC-labeled peptide substrate. To be noted: HDAC6; read-out: HDAC Isoform IC50 (nM) 6. As to the method: as §1, §2
Recombinant human HDAC6 (GenBank Accession No. BC069243), full length, MW=159 kDa, was expressed by baculovirus in Sf9 insect cells using an N-terminal GST tag.
as §3
HDAC6: 0.3 ng/ul HDAC6 and 50 μM HDAC substrate are in the reaction buffer with 1% DMSO final. Incubate for 1 hours at 30° C.
as §4, §5

Another experiment concerns the target T5, Human HDAC7 (Homo sapiens, UniProt Q8WUI4).
T5 construct: (a.a. 518-end) with N-terminal GST tag; GST (N); host or cells: baculovirus expression system
T5 sequence (Q8WUI4 518-952 limits assumed): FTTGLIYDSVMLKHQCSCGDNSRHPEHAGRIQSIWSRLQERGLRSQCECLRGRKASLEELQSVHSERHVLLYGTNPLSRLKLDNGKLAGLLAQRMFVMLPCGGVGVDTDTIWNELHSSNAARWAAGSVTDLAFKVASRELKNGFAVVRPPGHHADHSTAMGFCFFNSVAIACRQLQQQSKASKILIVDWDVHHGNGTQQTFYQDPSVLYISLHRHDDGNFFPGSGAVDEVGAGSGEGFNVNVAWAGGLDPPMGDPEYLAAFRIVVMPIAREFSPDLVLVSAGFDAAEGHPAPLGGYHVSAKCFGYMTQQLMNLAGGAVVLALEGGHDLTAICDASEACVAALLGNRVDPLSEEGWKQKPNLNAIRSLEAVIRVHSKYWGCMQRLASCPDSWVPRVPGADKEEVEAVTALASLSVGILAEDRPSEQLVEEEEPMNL
In words: HDAC7 biochemical assay, class IIa-specific substrate. To be noted: read-out: HDAC Isoform IC50 (nM) 7. As to the method: as §1, §2
Human HDAC7 (GenBank Accession No. AY302468), (a.a. 518-end) with N-terminal GST tag, MW=78 kDa, expressed in baculovirus expression system.
as §3, §6
HDAC7: 0.001 ng/ul HDAC7 and 50 μM Class IIa HDAC substrate are in the reaction buffer with 1% DMSO final. Incubate for 30 minutes at room temperature.
as §4, §5

A further experiment addresses T6, Human HDAC9 (Homo sapiens, UniProt Q9UKV0).
T6 construct: amino acids 604-1066 with C-terminal His tag; His (C); host or cells: baculovirus expression system
Put plainly: HDAC9 biochemical assay, class IIa-specific substrate. The conditions noted are these: read-out: HDAC Isoform IC50 (nM) 9. The procedure: as §1, §2
Human HDAC9 (GenBank Accession No. NM_178423), amino acids 604-1066 with C-terminal His tag, MW=50.7 kDa, expressed in baculovirus expression system.
as §3, §6
HDAC9: 0.06 ng/ul HDAC9 and 50 μM Class IIa HDAC substrate are in the reaction buffer with 1% DMSO final. Incubate for 30 minutes at room temperature.
as §4, §5

T2 sequence (P56524 627-1084 limits assumed): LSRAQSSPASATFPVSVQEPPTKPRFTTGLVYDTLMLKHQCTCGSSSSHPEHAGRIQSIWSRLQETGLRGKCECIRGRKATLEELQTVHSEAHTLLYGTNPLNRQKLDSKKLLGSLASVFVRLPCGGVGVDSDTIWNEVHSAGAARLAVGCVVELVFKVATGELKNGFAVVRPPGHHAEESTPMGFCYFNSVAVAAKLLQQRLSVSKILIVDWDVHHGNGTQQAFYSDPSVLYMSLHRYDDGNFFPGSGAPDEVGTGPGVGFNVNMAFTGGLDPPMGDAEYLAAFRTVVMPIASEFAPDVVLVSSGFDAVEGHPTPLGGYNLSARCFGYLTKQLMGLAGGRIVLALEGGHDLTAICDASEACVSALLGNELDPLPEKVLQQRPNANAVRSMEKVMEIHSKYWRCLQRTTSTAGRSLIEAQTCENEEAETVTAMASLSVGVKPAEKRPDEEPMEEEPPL
T6 sequence (Q9UKV0 604-1066 isoform Q9UKV0-5): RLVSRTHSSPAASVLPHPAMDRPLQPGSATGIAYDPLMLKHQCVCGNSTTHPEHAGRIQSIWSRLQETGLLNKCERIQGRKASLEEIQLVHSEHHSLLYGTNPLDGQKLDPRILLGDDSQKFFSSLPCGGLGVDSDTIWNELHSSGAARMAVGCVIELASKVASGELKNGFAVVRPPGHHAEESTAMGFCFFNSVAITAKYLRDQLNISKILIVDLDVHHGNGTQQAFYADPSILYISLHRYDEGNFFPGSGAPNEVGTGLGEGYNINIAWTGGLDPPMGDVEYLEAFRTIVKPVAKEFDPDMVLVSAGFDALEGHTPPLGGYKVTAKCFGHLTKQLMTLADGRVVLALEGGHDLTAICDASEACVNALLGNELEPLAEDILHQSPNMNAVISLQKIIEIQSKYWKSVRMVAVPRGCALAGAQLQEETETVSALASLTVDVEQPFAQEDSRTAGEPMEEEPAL
T1 sequence (Q13547 whole entry): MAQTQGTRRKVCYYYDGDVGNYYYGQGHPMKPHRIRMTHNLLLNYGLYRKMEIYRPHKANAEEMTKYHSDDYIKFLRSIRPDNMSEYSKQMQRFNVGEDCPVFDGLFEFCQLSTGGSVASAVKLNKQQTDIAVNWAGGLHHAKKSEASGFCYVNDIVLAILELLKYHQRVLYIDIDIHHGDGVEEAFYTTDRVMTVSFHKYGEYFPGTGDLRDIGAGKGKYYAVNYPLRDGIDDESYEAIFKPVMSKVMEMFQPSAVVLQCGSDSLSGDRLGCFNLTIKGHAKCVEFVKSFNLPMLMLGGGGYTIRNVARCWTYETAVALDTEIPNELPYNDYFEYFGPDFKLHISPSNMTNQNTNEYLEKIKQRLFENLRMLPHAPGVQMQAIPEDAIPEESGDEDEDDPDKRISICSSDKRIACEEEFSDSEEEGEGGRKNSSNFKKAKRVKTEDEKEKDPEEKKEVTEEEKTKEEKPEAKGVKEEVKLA
T3 sequence (Q9UQL6 656-1122 limits assumed): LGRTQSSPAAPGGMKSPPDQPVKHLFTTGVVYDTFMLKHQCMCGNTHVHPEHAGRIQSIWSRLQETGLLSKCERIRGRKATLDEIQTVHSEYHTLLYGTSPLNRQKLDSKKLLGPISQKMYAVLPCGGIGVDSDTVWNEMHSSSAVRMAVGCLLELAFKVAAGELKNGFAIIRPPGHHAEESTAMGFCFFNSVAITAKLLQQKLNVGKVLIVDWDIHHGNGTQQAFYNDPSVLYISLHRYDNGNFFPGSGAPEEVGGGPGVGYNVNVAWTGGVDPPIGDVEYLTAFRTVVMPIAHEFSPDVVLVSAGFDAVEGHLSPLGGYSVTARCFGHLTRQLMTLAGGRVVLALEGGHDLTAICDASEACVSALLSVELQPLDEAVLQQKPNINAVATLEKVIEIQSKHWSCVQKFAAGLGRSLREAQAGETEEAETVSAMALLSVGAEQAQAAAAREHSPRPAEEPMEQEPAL

On to `Cc1cnc(N(Cc2ccc(-c3noc(C(F)(F)F)n3)s2)c2cc(C(F)(F)F)cnn2)cn1` [Example EO, N-(5-Methylpyrazin-2-yl)-5-(trifluoromethyl)-N-({5-[5-(trifluoromethyl)-1,2,4-oxadiazol-3-yl]thiophen-2-yl}methyl)pyridazin-3-amine], for which the IC50 at Human HDAC1 is over 10000 nM; at Human HDAC4, at most 10000 nM; on Human HDAC5, at most 10000 nM; at Recombinant human HDAC6, at most 10000 nM; at Human HDAC7 it was at most 10000 nM; on Human HDAC9, over 10000 nM.

In the case of `FC(F)(F)c1cnnc(N(Cc2ccc(-c3noc(C(F)(F)F)n3)s2)c2ccccn2)c1` [Example EG, N-(Pyridin-2-yl)-5-(trifluoromethyl)-N-({5-[5-(trifluoromethyl)-1,2,4-oxadiazol-3-yl]thiophen-2-yl}methyl)pyridazin-3-amine], the IC50 was over 10000 nM at Human HDAC1; at most 10000 nM at Human HDAC4; at most 10000 nM at Human HDAC5; at most 10000 nM on Recombinant human HDAC6; over 10000 nM at Human HDAC7; over 10000 nM at Human HDAC9.

On to `FC(F)(F)c1nc(-c2ccc(CN(c3cnccn3)c3nccc(N4CCCC4)n3)s2)no1` [Example AV, N-(Pyrazin-2-yl)-4-(pyrrolidin-1-yl)-N-({5-[5-(trifluoromethyl)-1,2,4-oxadiazol-3-yl]thiophen-2-yl}methyl)pyrimidin-2-amine], for which the IC50 is over 10000 nM at Human HDAC1; at most 10000 nM at Human HDAC4; at most 10000 nM on Human HDAC5; at most 10000 nM on Recombinant human HDAC6; at most 10000 nM at Human HDAC7; at most 10000 nM at Human HDAC9.

In the case of `Cc1nc(N2CCCC2)cc(N(Cc2ccc(-c3noc(C(F)(F)F)n3)s2)c2cnccn2)n1` [Example CQ, 2-Methyl-N-(pyrazin-2-yl)-6-(pyrrolidin-1-yl)-N-({5-[5-(trifluoromethyl)-1,2,4-oxadiazol-3-yl]thiophen-2-yl}methyl)pyrimidin-4-amine], the 50% inhibitory concentration (IC50) is over 10000 nM on Human HDAC1; at most 10000 nM at Human HDAC4; at most 10000 nM on Human HDAC5; at most 10000 nM on Recombinant human HDAC6; at most 10000 nM on Human HDAC7; at most 10000 nM at Human HDAC9.

On to `CN1CCN(c2ccc(N(Cc3ccc(-c4noc(C(F)(F)F)n4)s3)c3cnccn3)nn2)CC1` [Example DK, 6-(4-Methylpiperazin-1-yl)-N-(pyrazin-2-yl)-N-({5-[5-(trifluoromethyl)-1,2,4-oxadiazol-3-yl]thiophen-2-yl}methyl)pyridazin-3-amine], for which the IC50 on Human HDAC1 is at most 10000 nM; on Human HDAC4, at most 500 nM; on Human HDAC5, at most 500 nM; on Recombinant human HDAC6, at most 500 nM; on Human HDAC7, at most 500 nM; at Human HDAC9, at most 10000 nM.

`Cc1ccc(N(Cc2ccc(-c3noc(C(F)(F)F)n3)s2)c2cnccn2)nn1` [Example DF, 6-Methyl-N-(pyrazin-2-yl)-N-({5-[5-(trifluoromethyl)-1,2,4-oxadiazol-3-yl]thiophen-2-yl}methyl)pyridazin-3-amine]: the IC50 was over 10000 nM on Human HDAC1; at most 10000 nM at Human HDAC4; at most 10000 nM on Human HDAC5; at most 10000 nM on Recombinant human HDAC6; at most 10000 nM at Human HDAC7; at most 10000 nM at Human HDAC9.

With `Cc1cc(C)nc(N(Cc2ccc(-c3noc(C(F)(F)F)n3)s2)c2cnccn2)n1` [Example AZ, 4,6-Dimethyl-N-(pyrazin-2-yl)-N-({5-[5-(trifluoromethyl)-1,2,4-oxadiazol-3-yl]thiophen-2-yl}methyl)pyrimidin-2-amine], the concentration for half-maximal inhibition (IC50) is over 10000 nM at Human HDAC1; over 10000 nM at Human HDAC4; at most 10000 nM on Human HDAC5; at most 10000 nM at Recombinant human HDAC6; over 10000 nM at Human HDAC7; over 10000 nM at Human HDAC9.

Take `FC(F)(F)c1nc(-c2ccc(CN(c3cnccn3)c3ccc4nccn4n3)s2)no1` [Example DT, N-{Imidazo[1,2-b]pyridazin-6-yl}-N-({5-[5-(trifluoromethyl)-1,2,4-oxadiazol-3-yl]thiophen-2-yl}methyl)pyrazin-2-amine]: the 50% inhibitory concentration (IC50) at Human HDAC1 is over 10000 nM; at Human HDAC4 it was at most 1000 nM; at Human HDAC5 it was at most 500 nM; at Recombinant human HDAC6, at most 1000 nM; on Human HDAC7, at most 500 nM; on Human HDAC9 it was at most 1000 nM.
